Assay results as given in PMC11053151, “Anti-inflammatory and anti-diabetic properties of indanone derivative isolated from Fernandoa adenophylla in vitro and in silico studies” (Scientific Reports, 2024).

Legend:
[1] = target: T1, α-amylase (porcine pancreatic amylase) (Sus scrofa, UniProt P00690); assay: starch hydrolysis / dinitrosalicylate colorimetric alpha-amylase inhibition assay; percent inhibition at […] µg; type: biochemical
T1 construct: gene AMY2
T1 sequence (P00690 16-511): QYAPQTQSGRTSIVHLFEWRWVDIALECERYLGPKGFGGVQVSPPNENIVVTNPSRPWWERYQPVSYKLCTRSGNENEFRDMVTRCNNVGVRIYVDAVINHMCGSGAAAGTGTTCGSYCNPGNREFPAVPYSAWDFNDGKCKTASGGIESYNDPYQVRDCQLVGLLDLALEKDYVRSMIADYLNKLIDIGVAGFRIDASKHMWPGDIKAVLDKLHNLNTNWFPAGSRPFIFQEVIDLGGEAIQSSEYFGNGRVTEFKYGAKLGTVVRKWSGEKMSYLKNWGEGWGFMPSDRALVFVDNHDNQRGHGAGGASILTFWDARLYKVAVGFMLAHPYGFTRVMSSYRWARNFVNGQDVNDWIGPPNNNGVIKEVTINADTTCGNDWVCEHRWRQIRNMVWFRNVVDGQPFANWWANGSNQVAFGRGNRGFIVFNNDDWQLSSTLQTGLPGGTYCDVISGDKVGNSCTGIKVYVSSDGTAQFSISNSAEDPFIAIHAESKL

[2] = target: T1, α-amylase (porcine pancreatic amylase); assay: starch hydrolysis / dinitrosalicylate colorimetric alpha-amylase inhibition assay; type: biochemical

| Compound | % [1] [%] | IC50 [2] [µM] |
| --- | --- | --- |
| C[C@H]1O[C@H](O[C@H]2[C@H](O)[C@@H](O)[C@@H](O[C@H]3[C@H](O)[C@@H](O)C(O)O[C@@H]3CO)O[C@@H]2CO)[C@H](O)[C@@H](O)[C@@H]1N[C@H]1C=C(CO)[C@@H](O)[C@H](O)[C@H]1O (some centres unmarked) [acarbose] | 87.08 ± 1.328 |  |
| COC(=O)[C@@]1(O)c2ccccc2C(=O)[C@]1(O)CC=C(C)C [indanone derivative, methyl (1R trans, 2S trans)-1,2-dihydroxy-2-(3-methylbut-2-en-1-yl)-3-oxo-2,3-dihydro-1H-indene-1-carboxylate] |  | 46.4 |
